# Read-outs that look alike come from different tables or passages of the source. *1 amine or outer side, *2 acyl side, *3 side chain or, on linkers, in order; H or OH if unused. Where a SMILES comes first, the peptide text is derived from it. Side-chain parts run from the residue outwards. [ ]: non-standard residue; d: D form. The star is where a group is joined. αMePhe(2-F) = C[C@](N)(Cc1ccccc1F)C(=O)O; γGlu = O=C(O)[C@H](CCC(=O)[*:2])N[*:1]; αMeY = C[C@](N)(Cc1ccc(O)cc1)C(=O)O; αMeF = C[C@](N)(Cc1ccccc1)C(=O)O; αMeL = CC(C)C[C@](C)(N)C(=O)O; Lauroyl = CCCCCCCCCCCC(=O)*; Orn = NCCC[C@H](N)C(=O)O; AEEA = NCCOCCOCC(=O)O; Aib = CC(C)(N)C(=O)O
# Tests used:
# [1] = molecular target: T1, human GLP-1 receptor (hGLP-1R) (Homo sapiens, UniProt P43220); experiment: [125I]-GLP-1 binding, SPA with membranes of HEK293 cells expressing hGLP-1R; conditions: human GLP-1R; geometric mean (SEM, n); read-out: Binding Affinity Ki, nM (SEM, n) hGLP-1R
# T1 construct: expressed in transfected cells; crude membranes
# T1 sequence (P43220 24-463): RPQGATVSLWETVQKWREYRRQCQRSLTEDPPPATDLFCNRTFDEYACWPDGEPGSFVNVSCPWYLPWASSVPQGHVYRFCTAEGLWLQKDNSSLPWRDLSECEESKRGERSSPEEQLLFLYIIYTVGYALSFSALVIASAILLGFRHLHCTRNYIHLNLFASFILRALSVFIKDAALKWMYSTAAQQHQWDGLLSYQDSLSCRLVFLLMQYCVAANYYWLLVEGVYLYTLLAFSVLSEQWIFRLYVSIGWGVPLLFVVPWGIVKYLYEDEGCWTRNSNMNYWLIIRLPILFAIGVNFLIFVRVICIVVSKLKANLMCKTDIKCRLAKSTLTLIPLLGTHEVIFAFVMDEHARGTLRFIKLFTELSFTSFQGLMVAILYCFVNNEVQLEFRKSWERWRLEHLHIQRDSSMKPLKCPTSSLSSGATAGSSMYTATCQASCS
# [2] = molecular target: T2, human GIP receptor (hGIPR) (Homo sapiens, UniProt P48546); experiment: [125I]-GIP binding, SPA with membranes of CHO cells expressing hGIPR; conditions: human GIPR; geometric mean (SEM, n); read-out: Binding Affinity Ki, nM (SEM, n) hGIPR
# T2 construct: expressed in transfected cells; crude membranes
# T2 sequence (P48546 22-466): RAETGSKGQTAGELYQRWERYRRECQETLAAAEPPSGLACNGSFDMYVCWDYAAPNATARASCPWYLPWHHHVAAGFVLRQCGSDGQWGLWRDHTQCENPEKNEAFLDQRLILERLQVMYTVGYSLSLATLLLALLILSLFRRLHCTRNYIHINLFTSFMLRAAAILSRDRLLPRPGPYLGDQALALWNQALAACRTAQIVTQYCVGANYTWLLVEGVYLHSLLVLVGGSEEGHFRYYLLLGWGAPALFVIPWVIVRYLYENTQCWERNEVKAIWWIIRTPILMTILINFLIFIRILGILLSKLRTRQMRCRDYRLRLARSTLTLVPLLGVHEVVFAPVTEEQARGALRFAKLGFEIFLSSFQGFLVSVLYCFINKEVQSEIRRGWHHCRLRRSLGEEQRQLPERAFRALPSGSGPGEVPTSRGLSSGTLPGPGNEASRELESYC
# hGIPR = molecular target: T3, hGIPR (Homo sapiens, UniProt P48546); experiment: Functional cAMP formation (HTRF) in HEK-293 clonal cells expressing hGIPR, 0.1% bovine casein, without or with 1.0% human serum albumin; type: cell-based; conditions: 37° C.; for Emax: percent of maximal response to GIP(1-42)NH2, read-out: hGIPR Emax, % ± SEM; for EC50: read-out: hGIPR EC50, nM (SEM, n)
# T3 construct: expressed in transfected cells
# T3 sequence (P48546 22-466): T2 sequence (P48546 22-466)
# Summary of the method: (§1)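 Cells were stimulated with peptide for 30 min at 37° C, then lysed in buffer carrying cAMP-d2 and anti-cAMP Eu3+-cryptate for a competitive HTRF read after at least 60 min at room temperature. The 665/620 nm ratio was converted to nM cAMP against a standard curve.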
# hGCGR = molecular target: T4, hGCGR (Homo sapiens, UniProt P47871); experiment: Functional cAMP formation (HTRF) in HEK-293 clonal cells expressing hGCGR, 0.1% bovine casein, without or with 1.0% human serum albumin; type: cell-based; conditions: 37° C., read-out: hGCGR EC50, nM (SEM, n)
# T4 construct: expressed in transfected cells
# T4 sequence (P47871 26-477): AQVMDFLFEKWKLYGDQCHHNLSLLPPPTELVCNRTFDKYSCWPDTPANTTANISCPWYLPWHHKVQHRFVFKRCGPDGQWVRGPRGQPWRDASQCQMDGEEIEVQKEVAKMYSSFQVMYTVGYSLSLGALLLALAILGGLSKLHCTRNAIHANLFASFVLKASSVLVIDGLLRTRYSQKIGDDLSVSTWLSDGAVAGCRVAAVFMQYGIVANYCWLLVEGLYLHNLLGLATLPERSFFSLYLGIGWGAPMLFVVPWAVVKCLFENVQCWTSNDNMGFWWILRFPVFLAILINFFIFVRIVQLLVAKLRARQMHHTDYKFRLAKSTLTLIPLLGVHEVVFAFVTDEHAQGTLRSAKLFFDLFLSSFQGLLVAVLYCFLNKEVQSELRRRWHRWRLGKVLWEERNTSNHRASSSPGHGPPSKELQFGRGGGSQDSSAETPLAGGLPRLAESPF
# Summary of the method: as §1
# hGLP-1R = hGLP-1R (Homo sapiens, UniProt P43220); experiment: Functional cAMP formation (HTRF) in HEK-293 clonal cells expressing hGLP-1R, 0.1% bovine casein, without or with 1.0% human serum albumin; type: cell-based; parameters: expressed in transfected cells; conditions: 37° C.; for Emax: percent of maximal response to GLP-1(7-36)NH2, read-out: hGLP-1R Emax, % ± SEM; for EC50: cAMP, 0.1% bovine casein (no human serum albumin), geometric mean, read-out: hGLP-1R EC50, nM (SEM, n)
# Chain of hGLP-1R (P43220 24-463): as the sequence (P43220 24-463) above
# Summary of the method: as §1
# [3] = HEK293, cAMP, 0.1% bovine casein and 1.0% human serum albumin
# [4] = cAMP, 0.1% bovine casein (no human serum albumin), geometric mean
# [5] = cAMP, 0.1% bovine casein and 1.0% human serum albumin, geometric mean (SEM, n)
# [6] = HEK293, cAMP, 0.1% bovine casein, arithmetic mean
# [7] = HEK293, 0.1% bovine casein and 1.0% human serum albumin
# [8] = 0.1% bovine casein and 1.0% human serum albumin, geometric mean
Compound,Ki [1] [nM],Ki [2] [nM],Emax (hGIPR; [3]) [%],EC50 (hGIPR; [4]) [nM],EC50 (hGIPR; [5]) [nM],EC50 (hGCGR; [4]) [nM],EC50 (hGCGR; [5]) [nM],Emax (hGLP-1R; [6]) [%],EC50 (hGLP-1R) [nM],Emax (hGIPR; [7]) [%],EC50 (hGCGR; [8]) [nM],Emax (hGLP-1R; [7]) [%],Emax (hGIPR; [6]) [%],EC50 (hGIPR; [8]) [nM]
CC[C@H](C)[C@H](NC(=O)[C@H](CC(C)C)NC(=O)[C@](C)(Cc1ccc(O)cc1)NC(=O)[C@H](CCCCNC(=O)COCCOCCNC(=O)CC[C@H](NC(=O)COCCOCCNC(=O)CC[C@H](NC(=O)CCCCCCCCCCCCC(=O)O)C(=O)O)C(=O)O)NC(=O)[C@@H](NC(=O)[C@H](Cc1ccccc1)NC(=O)[C@H](CCCN)NC(=O)C(C)(C)NC(=O)[C@H](CCC(N)=O)NC(=O)[C@H](C)NC(=O)[C@H](CCC(N)=O)NC(=O)[C@H](CCCN)NC(=O)[C@H](CC(=O)O)NC(=O)[C@H](CC(C)C)NC(=O)[C@](C)(CC(C)C)NC(=O)[C@@H](NC(=O)C(C)(C)NC(=O)[C@H](Cc1ccncc1)NC(=O)[C@H](CC(=O)O)NC(=O)[C@H](CO)NC(=O)[C@@H](NC(=O)[C@](C)(Cc1ccccc1F)NC(=O)[C@@H](NC(=O)CNC(=O)[C@H](CCC(=O)O)NC(=O)C(C)(C)NC(=O)[C@@H](N)Cc1ccc(O)cc1)[C@@H](C)O)[C@@H](C)O)[C@@H](C)CC)[C@@H](C)CC)C(=O)N[C@@H](CCCCNC(=O)COCCOCCNC(=O)CC[C@H](NC(=O)COCCOCCNC(=O)CC[C@H](NC(=O)CCCCCCCCCCCCC(=O)O)C(=O)O)C(=O)O)C(=O)NCC(=O)NCC(=O)N1CCC[C@H]1C(=O)N[C@@H](CO)C(=O)N[C@@H](CO)C(=O)NCC(=O)N[C@@H](C)C(=O)N1CCC[C@H]1C(=O)N1CCC[C@H]1C(=O)N1CCC[C@H]1C(=O)N[C@@H](CO)C(N)=O [Example 484],0.268,0.0296,91.3,0.0136,0.453,> 9950,> 9950,118,0.17,–,–,–,–,–
CCCCCCCCCCCC(=O)N[C@@H](CCC(=O)NCCOCCOCC(=O)NCCOCCOCC(=O)NCCCC[C@H](NC(=O)[C@H](CCCN)NC(=O)[C@H](CC(=O)O)NC(=O)[C@H](CC(C)C)NC(=O)[C@](C)(CC(C)C)NC(=O)[C@@H](NC(=O)[C@H](CO)NC(=O)[C@H](CCCCNC(=O)COCCOCCNC(=O)COCCOCCNC(=O)CC[C@H](NC(=O)CCCCCCCCCCC)C(=O)O)NC(=O)[C@H](CC(=O)O)NC(=O)[C@H](CO)NC(=O)[C@@H](NC(=O)[C@](C)(Cc1ccccc1F)NC(=O)[C@@H](NC(=O)CNC(=O)[C@H](CCC(=O)O)NC(=O)C(C)(C)NC(=O)[C@@H](N)Cc1ccc(O)cc1)[C@@H](C)O)[C@@H](C)O)[C@@H](C)CC)C(=O)N[C@@H](C)C(=O)N[C@@H](CCC(N)=O)C(=O)NC(C)(C)C(=O)N[C@@H](CCC(=O)O)C(=O)N[C@@](C)(Cc1ccccc1)C(=O)N[C@H](C(=O)N[C@H](CCC(=O)O)C(=O)N[C@@](C)(Cc1ccc(O)cc1)C(=O)N[C@@H](CC(C)C)C(=O)N[C@H](C(=O)N[C@@H](CCC(=O)O)C(=O)NCC(=O)NCC(=O)N1CCC[C@H]1C(=O)N[C@@H](CO)C(=O)N[C@@H](CO)C(=O)NCC(=O)N[C@@H](C)C(=O)N1CCC[C@H]1C(=O)N1CCC[C@H]1C(=O)N1CCC[C@H]1C(=O)N[C@@H](CO)C(N)=O)[C@@H](C)CC)[C@@H](C)CC)C(=O)O [Example 293] (H-Y[Aib]EGT[αMePhe(2-F)]TSDK([AEEA-AEEA-γGlu-Lauroyl])SI[αMeL]LD[Orn]K([AEEA-AEEA-γGlu-Lauroyl])AQ[Aib]E[αMeF]I[dE][αMeY]LIEGGPSSGAPPPS-NH2),0.211,0.022,–,0.00915,–,> 9950,–,–,0.102,96.6,> 9950,99.4,–,–
CC[C@H](C)[C@H](NC(=O)[C@H](CC(C)C)NC(=O)[C@](C)(Cc1ccc(O)cc1)NC(=O)[C@H](CCCCNC(=O)CCOCCOCCOCCOCCOCCOCCNC(=O)CC[C@H](NC(=O)CCCCCCCCCCCCC(=O)O)C(=O)O)NC(=O)[C@@H](NC(=O)[C@H](Cc1ccccc1)NC(=O)[C@H](CCCN)NC(=O)C(C)(C)NC(=O)[C@H](CCC(N)=O)NC(=O)[C@H](C)NC(=O)[C@H](CCC(N)=O)NC(=O)[C@H](CCCN)NC(=O)[C@H](CC(=O)O)NC(=O)[C@H](CC(C)C)NC(=O)[C@](C)(CC(C)C)NC(=O)[C@@H](NC(=O)C(C)(C)NC(=O)[C@H](Cc1ccncc1)NC(=O)[C@H](CC(=O)O)NC(=O)[C@H](CO)NC(=O)[C@@H](NC(=O)[C@](C)(Cc1ccccc1F)NC(=O)[C@@H](NC(=O)CNC(=O)[C@H](CCC(=O)O)NC(=O)C(C)(C)NC(=O)[C@@H](N)Cc1ccc(O)cc1)[C@@H](C)O)[C@@H](C)O)[C@@H](C)CC)[C@@H](C)CC)C(=O)N[C@@H](CCCCNC(=O)CCOCCOCCOCCOCCOCCOCCNC(=O)CC[C@H](NC(=O)CCCCCCCCCCCCC(=O)O)C(=O)O)C(=O)NCC(=O)NCC(=O)N1CCC[C@H]1C(=O)N[C@@H](CO)C(=O)N[C@@H](CO)C(=O)NCC(=O)N[C@@H](C)C(=O)N1CCC[C@H]1C(=O)N1CCC[C@H]1C(=O)N1CCC[C@H]1C(=O)N[C@@H](CO)C(N)=O [Example 466],0.2,0.0199,93.4,0.00971,–,> 10100,> 10100,105,0.156,–,–,–,98.8,–
CCCCCCCCCCCC(=O)N[C@@H](CCC(=O)NCCOCCOCC(=O)NCCOCCOCC(=O)NCCCC[C@H](NC(=O)[C@H](CO)NC(=O)[C@@H]1CCCN1C(=O)[C@@H]1CCCN1C(=O)[C@@H]1CCCN1C(=O)[C@H](C)NC(=O)CNC(=O)[C@H](CO)NC(=O)[C@H](CO)NC(=O)[C@@H]1CCCN1C(=O)CNC(=O)CNC(=O)[C@H](CCC(=O)O)NC(=O)[C@@H](NC(=O)[C@H](CC(C)C)NC(=O)[C@](C)(Cc1ccc(O)cc1)NC(=O)[C@@H](CCC(=O)O)NC(=O)[C@@H](NC(=O)[C@H](Cc1ccccc1)NC(=O)[C@H](CCC(=O)O)NC(=O)C(C)(C)NC(=O)[C@H](CCC(N)=O)NC(=O)[C@H](C)NC(=O)[C@H](CCCCNC(=O)COCCOCCNC(=O)COCCOCCNC(=O)CC[C@H](NC(=O)CCCCCCCCCCC)C(=O)O)NC(=O)[C@H](CCCN)NC(=O)[C@H](CC(=O)O)NC(=O)[C@H](CC(C)C)NC(=O)[C@](C)(CC(C)C)NC(=O)[C@@H](NC(=O)C(C)(C)NC(=O)[C@H](Cc1ccc(O)cc1)NC(=O)[C@H](CC(=O)O)NC(=O)[C@H](CO)NC(=O)[C@@H](NC(=O)[C@](C)(Cc1ccccc1F)NC(=O)[C@@H](NC(=O)CNC(=O)[C@H](CCC(=O)O)NC(=O)C(C)(C)NC(=O)[C@@H](N)Cc1ccc(O)cc1)[C@@H](C)O)[C@@H](C)O)[C@@H](C)CC)[C@@H](C)CC)[C@@H](C)CC)C(N)=O)C(=O)O [Example 302],0.137,0.0228,–,0.00916,–,> 9950,–,–,0.0917,86.3,> 9950,99.4,100,0.453

# — patent US20230265151A1, “GIP/GLP1 CO-AGONIST COMPOUNDS” (priority 2020, published 2023)
